What was measured:
[1] = Absorption study by means of the biopharmaceutics classification system (BCS); type: in vitro ADME
Procedure: It was possible to show in an absorption study by means of the biopharmaceutics classification system (BCS) that α-hederin is to be attributed with a moderate absorption (10-90%). […] Absorption studies were carried out on rats for this purpose.

[2] = Absorption studies on rats: α-hederin plasma concentration after i.v. or oral administration of ivy leaf extracts; type: in vivo; conditions: all samples after i.v. or p.o. administration of extract A or B
From the text: The influence of administration of two different extracts on the plasma concentration of α-hederin was subsequently investigated. The change in the plasma concentration of α-hederin with a single administration compared with multiple administration of the extract and with different blood sampling times after administration was also investigated, as was the α-hederin absorption rate. Two extracts whose saponin distribution is shown in Table 1 below were selected for this purpose:
For intravenous administration, the required amount of extract was dissolved in 11% (m/m) ethanol, filtered and injected. It was aimed to administer a volume of 2 ml of extract solution (dose in each case [mg/kg of bodyweight]: 25). A blood sample was taken from the animals 5 minutes after the administration. About 2 ml of whole blood with added EDTA for anticoagulation were required for each sample.
Suspensions of the extracts in glycerol were prepared for oral administration. The animals were gavaged with about 2 ml of these suspensions (dose in each case [mg/kg of bodyweight]: 1000 and 166.66). 2 ml of blood were taken from each of the animals 1 and 3 hours after the last administration in each case.
The total saponin content takes account of the molar masses of the two constituents and is based on α-hederin. The total saponin content in extract A in this case was 9.8%, based on α-hederin. […]

smooth muscles = assay: Spasmolytic activity / relaxation of smooth muscles; conditions: via binding to β-adrenergic receptors; recent studies by the applicant

| SMILES | permeation through the membranes ([1]; same conditions as BCS absorption study) | Hederacoside C in plasma samples [2] | absorption (BCS) ([1]; biopharmaceutics classification system, moderate absorption) | relaxation of smooth muscles (smooth muscles) |
| --- | --- | --- | --- | --- |
| C[C@@H]1O[C@@H](O[C@H]2[C@H](O[C@H]3CC[C@@]4(C)[C@@H](CC[C@]5(C)[C@@H]4CC=C4[C@@H]6CC(C)(C)CC[C@]6(C(=O)O[C@@H]6O[C@H](CO[C@@H]7O[C@H](CO)[C@@H](O[C@@H]8O[C@@H](C)[C@H](O)[C@@H](O)[C@H]8O)[C@H](O)[C@H]7O)[C@@H](O)[C@H](O)[C@H]6O)CC[C@]45C)[C@]3(C)CO)OC[C@H](O)[C@@H]2O)[C@H](O)[C@H](O)[C@H]1O [hederacoside C] | did not permeate through the membranes | not detectable |  |  |
| C[C@@H]1O[C@@H](O[C@H]2[C@H](O[C@H]3CC[C@@]4(C)[C@@H](CC[C@]5(C)[C@@H]4CC=C4[C@@H]6CC(C)(C)CC[C@]6(C(=O)O)CC[C@]45C)[C@]3(C)CO)OC[C@H](O)[C@@H]2O)[C@H](O)[C@H](O)[C@H]1O [α-hederin] |  |  | 10-90% | causes relaxation of smooth muscles |

Source: US7943184B2, “Process for preparing an extract from ivy leaves” (Engelhard Arzneimittel GmbH & Co. KG, priority 2003, dated 2011)
